The results in this text go back to patent publication US7795315B2, “N-(2-amino-phenyl)-amide derivatives” (Hoffman-La Roche Inc., priority 2008, dated 2010).

The term GI50 denotes the concentration giving 50% growth inhibition.

Common to all, as to format: cell-based
For assay [1], the system named is klf2 promoter-luciferase construct in A204 cells. Briefly: klf2 reporter gene induction (p21 versus klf2 selectivity). The note with it: SNDX-275 p21/klf2 ratio defined as 1.0; for p21/klf2 (RP3): relative selectivity compared with SNDX-275: 3 micromolar; for p21/klf2 (RP10): relative selectivity compared with SNDX-275: 10 micromolar. How it is done: (§1) The novel compounds of the present invention were tested for their ability to induce p21 gene expression using a reporter gene assay involving HeLa cells transfected with a p21 promoter-luciferase construct. The p21 promoter contained the Sp1/Sp3 binding site for HDAC but not the upstream p53 binding site. Briefly, the day before transfection, HeLa cells were seeded at 11,000 cells/well in a 96-well culture plate and incubated at 37 degrees Celsius in 5% CO2 overnight. For transfection, the medium was removed and replaced with 100 microliters/well transfection media previously prepared as follows: 5 microliters serum-free DMEM, 0.15 microliters Fugene 6 reagent, 40 ng p21-luc, 10 ng GFP were mixed gently and incubated at room temperature for 30 minutes; then 98 microliters DMEM (with 10% FBS, 1% penicillin and streptomycin) was added to the DNA:Fugene 6 reagent complex and mixed gently. After incubating the cells for 24 hours at 37 degrees Celsius in 5% CO2, fresh media and test compounds were added to the wells and the cells further incubated for 15 hours at 37 degrees Celsius in 5% CO2. Cells were lysed by adding 80 microliters/well of a cell culture lysis reagent (Promega). 50 microliters of each lysate was taken for GFP detection using an excitation wavelength of 486 nm and detection at 527 nm. 100 microliters Luciferase assay reagent (Promega) was then added to every 20 microliters cell lysate for luminometer detection. […] Induction activity for specific representative compounds can be found in Table 4.
The novel compounds of the present invention were tested for their ability to induce klf2 gene expression using a reporter gene assay involving A204 cells transfected with a klf2 promoter-luciferase construct. The klf2 promoter contained the MEF2 binding site for HDAC3/class IIa HDAC complex. Briefly, the day before transfection, A204 cells were seeded at 11,000 cells/well in a 96-well culture plate and incubated at 37 degrees Celsius in 5% CO2 overnight. For transfection, the medium was removed and replaced with 100 microliters/well transfection media previously prepared as follows: 5 microliters serum-free DMEM, 0.15 microliters Fugene 6 reagent, 40 ng klf2-luc, 10 ng GFP were mixed gently and incubated at room temperature for 30 minutes; then 98 microliters DMEM (with 10% FBS, 1% penicillin and streptomycin) was added to the DNA:Fugene 6 reagent complex and mixed gently. After incubating the cells for 24 hours at 37 degrees Celsius in 5% CO2, fresh media and test compounds were added to the wells and the cells further incubated for 15 hours at 37 degrees Celsius in 5% CO2. Finally, 10 ng/ml TNF-α was added and the cells further incubated for 4 hours. Cells were lysed by adding 80 microliters/well of a cell culture lysis reagent (Promega). 50 microliters of each lysate was taken for GFP detection using an excitation wavelength of 486 nm and detection at 527 nm. 100 microliters Luciferase assay reagent (Promega) was then added to every 20 microliters cell lysate for luminometer detection.
(In general: Reporter assays use an easily measured gene product as a stand-in for the process of interest.)

For assay [2], the system named is HCT-116 colon cancer cells. Briefly: Antiproliferative activity, growth inhibition (MTS/WST assay). The note with it: Homo sapiens, 72 hour growth inhibition, read-out: GI50 HCT116. How it is done:
The novel compounds of the present invention were tested for their ability to inhibit growth of various cancer cell lines (HeLa, MCF7, U2OS, HepG2, HL60, HCT-116) using in vitro growth inhibition assays described below.
Cells were seeded in 96-well culture plates (200 microliters/well at different seeding concentrations depending on cell type) and incubated overnight at 37 degrees Celsius in 5% CO2. After adding compound dilutions to the cells (DMSO concentration kept below 0.5%), the cells were incubated at 37 degrees Celsius in 5% CO2 for 72 hours. The effects on proliferation were determined by addition of MTS reagent (Promega) according to the manufacturer's instruction, followed by incubation for 2 hours at 37 degrees Celsius in 5% CO2, and finally recording the absorbance at 490 nm using an ELISA plate reader.
Similar to MTS assay except that the developer is the CCK-8 reagent (Dojindo) and the plate reader is set to 450 nm absorbance.
GI50 values against HCT-116 colon cancer cells for specific representative compounds can be found in Table 4.

The test system of assay [3] is p21 promoter-luciferase construct in HeLa cells. Briefly: p21 reporter gene induction. Conditions: 3 micromolar, 15 hours, relative to SNDX-275. How it is done: as §1

On to `Nc1ccccc1NC(=O)/C=C/c1ccc(C(C(=O)Nc2ccc(C(F)(F)F)cc2)N2CCCCC2)cc1` (stereo not shown) [Example 9-29, (E)-N-(2-Amino-phenyl)-3-{4-[piperidin-1-yl-(4-trifluoromethyl-phenylcarbamoyl)-methyl]-phenyl}-acrylamide], for which, in assay [1], the “p21/klf2 (RP3): relative selectivity compared with SNDX-275” value (from here on “p21/klf2 (RP3): relative selectivity”) was found to be 0.3 and the “p21/klf2 (RP10): relative selectivity compared with SNDX-275” value (shortened to “p21/klf2 (RP10): relative selectivity”) worked out at 0.5. For the same molecule, the GI50 in assay [2] turned out to be 7.1 µM. Besides, the “p21 (RP3): relative induction potency compared with SNDX-275” value (“p21 (RP3): relative induction potency” for short) in assay [3] was found to be 10%.

Consider `CN(C)C(C(=O)Nc1ccc(C(F)(F)F)cc1)c1ccc(/C=C/C(=O)Nc2ccccc2N)cc1` (stereo not shown) [Example 9-6, (E)-N-(2-Amino-phenyl)-3-{4-[dimethylamino-(4-trifluoromethyl-phenylcarbamoyl)-methyl]-phenyl}-acrylamide], for which, in assay [1], the “p21/klf2 (RP3): relative selectivity” value was found to be 0.9 and the “p21/klf2 (RP10): relative selectivity” value was 1.7. In assay [2], the 50% growth inhibitory concentration (GI50) turned out to be 2.7 µM. Besides, the “p21 (RP3): relative induction potency” value in assay [3] amounted to 47%.

Take `Nc1ccccc1NC(=O)/C=C/c1ccc(C(NCCN2CCOCC2)C(=O)Nc2ccc(C(F)(F)F)cc2F)cc1` (stereo not shown) [Example 4-22, (E)-N-(2-Amino-phenyl)-3-{4-[(2-fluoro-4-trifluoromethyl-phenylcarbamoyl)-(2-morpholin-4-yl-ethylamino)-methyl]-phenyl}-acrylamide]: in assay [1], the “p21/klf2 (RP3): relative selectivity” value is 1.8 and the “p21/klf2 (RP10): relative selectivity” value was 2.0. Moreover, the concentration for 50% growth inhibition (GI50) in assay [2] worked out at 1.2 µM. Also, the “p21 (RP3): relative induction potency” value in assay [3] is reported as 103%.

As to `Nc1ccccc1NC(=O)/C=C/c1ccc(C(NCCN2CCOCC2)C(=O)Nc2ccc(C(F)(F)F)c(Cl)c2)cc1` (stereo not shown) [Example 4-29, (E)-N-(2-Amino-phenyl)-3-{4-[(3-chloro-4-trifluoromethyl-phenylcarbamoyl)-(2-morpholin-4-yl-ethylamino)-methyl]-phenyl}-acrylamide], in assay [1], the “p21/klf2 (RP3): relative selectivity” value is recorded as 0.6 and the “p21/klf2 (RP10): relative selectivity” value stood at 2.3. In addition, the GI50 in assay [2] turned out to be 2.1 µM. In assay [3], the “p21 (RP3): relative induction potency” value was 48%.

In the case of `Nc1ccccc1NC(=O)/C=C/c1ccc(C(NCCN2C[C@@H]3C[C@H]2CO3)C(=O)Nc2ccc(C(F)(F)F)cc2)cc1` (stereo partly drawn) [Example 4-12, (E)-N-(2-Amino-phenyl)-3-{4-[[(1S,4S)-2-(2-oxa-5-aza-bicyclo[2.2.1]hept-5-yl)-ethylamino]-(4-trifluoromethyl-phenylcarbamoyl)-methyl]-phenyl}-acrylamide], in assay [1], the “p21/klf2 (RP3): relative selectivity” value amounted to 10.6 and the “p21/klf2 (RP10): relative selectivity” value amounted to 0.8. In addition, in assay [2], the GI50 was determined as 0.4 µM. Also, the “p21 (RP3): relative induction potency” value in assay [3] is given as 167%.

In the case of `Nc1ccccc1NC(=O)/C=C/c1ccc(C(NCCN2CCCCC2)C(=O)Nc2ccc(OC(F)(F)F)cc2)cc1` (stereo not shown) [Example 4-48, (E)-N-(2-Amino-phenyl)-3-{4-[(2-piperidin-1-yl-ethylamino)-(4-trifluoromethoxy-phenylcarbamoyl)-methyl]-phenyl}-acrylamide], in assay [1], the “p21/klf2 (RP3): relative selectivity” value was determined as 1.9 and the “p21/klf2 (RP10): relative selectivity” value was found to be 1.9. Besides, the concentration for 50% growth inhibition (GI50) in assay [2] amounted to 1.4 µM. Further, in assay [3], the “p21 (RP3): relative induction potency” value is listed as 130%.

Take `Nc1ccccc1NC(=O)/C=C/c1ccc(C(NCCN2CCOCC2)C(=O)Nc2ccc(Br)cc2)cc1` (stereo not shown) [Example 9-1, (E)-N-(2-Amino-phenyl)-3-{4-[(4-bromo-phenylcarbamoyl)-(2-morpholin-4-yl-ethylamino)-methyl]-phenyl}-acrylamide]: in assay [1], the “p21/klf2 (RP3): relative selectivity” value was 1.0 and the “p21/klf2 (RP10): relative selectivity” value worked out at 2.2. For the same molecule, the GI50 in assay [2] is 1 µM. Besides, in assay [3], the “p21 (RP3): relative induction potency” value was 144%.

As to `Nc1ccccc1NC(=O)/C=C/c1ccc(C(NCCN2CCOCC2)C(=O)Nc2ccc(C(F)(F)F)cn2)cc1` (stereo not shown) [Example 4-43, (E)-N-(2-Amino-phenyl)-3-{4-[(2-morpholin-4-yl-ethylamino)-(5-trifluoromethyl-pyridin-2-ylcarbamoyl)-methyl]-phenyl}-acrylamide], in assay [1], the “p21/klf2 (RP3): relative selectivity” value is 0.9 and the “p21/klf2 (RP10): relative selectivity” value is given as 2.1. For the same molecule, the concentration for 50% growth inhibition (GI50) in assay [2] is 2.2 µM. Further, the “p21 (RP3): relative induction potency” value in assay [3] came to 89%.

`CNC(C(=O)Nc1ccc(C(F)(F)F)cc1)c1ccc(/C=C/C(=O)Nc2ccccc2N)cc1` (stereo not shown) [Example 9-17, (E)-N-(2-Amino-phenyl)-3-{4-[methylamino-(4-trifluoromethyl-phenylcarbamoyl)-methyl]-phenyl}-acrylamide]: in assay [1], the “p21/klf2 (RP3): relative selectivity” value is listed as 1.3 and the “p21/klf2 (RP10): relative selectivity” value turned out to be 1.9. Besides, the GI50 in assay [2] amounted to 1.9 µM. For the same molecule, the “p21 (RP3): relative induction potency” value in assay [3] amounted to 84%.

Turning to `CN(C)CCNC(C(=O)Nc1ccc(C(F)(F)F)cc1F)c1ccc(/C=C/C(=O)Nc2ccccc2N)cc1` (stereo not shown) [Example 4-24, (E)-N-(2-Amino-phenyl)-3-{4-[(2-dimethylamino-ethylamino)-(2-fluoro-4-trifluoromethyl-phenylcarbamoyl)-methyl]-phenyl}-acrylamide], in assay [1], the “p21/klf2 (RP3): relative selectivity” value is 1.5 and the “p21/klf2 (RP10): relative selectivity” value is given as 1.5. Further, the GI50 in assay [2] was 2.1 µM. Besides, the “p21 (RP3): relative induction potency” value in assay [3] turned out to be 162%.

On to `Nc1ccccc1NC(=O)/C=C/c1ccc(C(OCCN2CCOCC2)C(=O)Nc2ccc(C(F)(F)F)cc2)cc1` (stereo not shown) [Example 19, (E)-N-(2-Amino-phenyl)-3-{4-[(2-morpholin-4-yl-ethoxy)-(4-trifluoromethyl-phenylcarbamoyl)-methyl]-phenyl}-acrylamide], for which, in assay [1], the “p21/klf2 (RP3): relative selectivity” value was found to be 1.6 and the “p21/klf2 (RP10): relative selectivity” value came out at 3.6. Moreover, the 50% growth inhibitory concentration (GI50) in assay [2] stood at 2.2 µM. Also, the “p21 (RP3): relative induction potency” value in assay [3] was found to be 98%.

`Nc1ccccc1NC(=O)/C=C/c1ccc(C(C(=O)Nc2ccc(C(F)(F)F)cc2)N2CCOCC2)cc1` (stereo not shown) [Example 9-10, (E)-N-(2-Amino-phenyl)-3-{4-[morpholin-4-yl-(4-trifluoromethyl-phenylcarbamoyl)-methyl]-phenyl}-acrylamide]: in assay [1], the “p21/klf2 (RP3): relative selectivity” value was determined as 1.0 and the “p21/klf2 (RP10): relative selectivity” value turned out to be 1.6. In addition, the GI50 in assay [2] turned out to be 1.1 µM. Further, the “p21 (RP3): relative induction potency” value in assay [3] worked out at 80%.

Take `CN(C)CCNC(C(=O)Nc1ccc(C(F)(F)F)c(F)c1)c1ccc(/C=C/C(=O)Nc2ccccc2N)cc1` (stereo not shown) [Example 4-49, (E)-N-(2-Amino-phenyl)-3-{4-[(2-dimethylamino-ethylamino)-(3-fluoro-4-trifluoromethyl-phenylcarbamoyl)-methyl]-phenyl}-acrylamide]: in assay [1], the “p21/klf2 (RP3): relative selectivity” value was found to be 1.5 and the “p21/klf2 (RP10): relative selectivity” value is 1.5. Moreover, the 50% growth inhibitory concentration (GI50) in assay [2] was 1.4 µM. Further, in assay [3], the “p21 (RP3): relative induction potency” value is listed as 128%.
